The values below come from patent US11639355B2, “Substituted pyrrolo[3,4-d]imidazoles as MDM2-p53 inhibitors” (LUOXIN PHARMACEUTICAL (SHANGHAI) CO., LTD., priority 2018, dated 2023).

The conditions of data set [1]: reported data; cited from earlier work.
A further data set concerns MV4-11 tumor cells. Briefly: Efficacy in mice with subcutaneously transplanted MV4-11 acute myeloid leukemia tumor. Type of data set: in vivo. The conditions noted are these: 6 mg/kg oral once a day. As for the experimental part: 0.2 mL (10×10^6 cells, containing 50% Matrigel) of MV4-11 tumor cells were inoculated subcutaneously on the right back of each mouse to form a transplanted tumor; when the volume reached 100-200 mm^3, the animals were randomly grouped according to the tumor volume, with 8 in the negative control group, 8 in the positive control group, and 8 in the experimental group. […] The length (A) and width (B) of the tumor were measured with a vernier caliper twice a week, thereby calculating the tumor volume V=A×B^2/2. The calculation of relative tumor volume (RTV) follows: RTV=Vt/V0, where Vt is the tumor volume at the end of the administration, and V0 is the tumor volume measured before division into different cages for administration. The pharmacodynamic evaluation index of the anti-tumor activity is the relative tumor proliferation ratio T/C (%), and the calculation formula is: T/C (%)=TRTV/CRTV×100%. Where TRTV is the RTV of the treatment group; CRTV is the RTV of the negative control group. Efficacy evaluation criteria: T/C %>60% is invalid; T/C %≤60% and P<0.05 upon statistical treatment is valid.
CVt is the tumor volume of the control group at the end of the administration; CV0 is the tumor volume of the control group before division into different cages for administration; TVt is the tumor volume of the dosing group at the end of the administration; TV0 is the tumor volume of the dosing group before division into different cages for administration. The difference in tumor volumes between the dosing group and the control group was subjected to t-test. At the same time, the nude mice of each group were weighed twice a week to preliminarily evaluate the side effects of the drugs.

The subject of data set [2] is P-glycoprotein (MDR1), human. The data set can be described thus: Two-way permeability evaluation in MDR1-MDCK cells. Type of data set: in vitro ADME. Conditions: dog, MDR1-MDCK. From the text:
(§1) Experiment purpose: To determine the permeability of the test compounds in MDR1-MDCK cells
(§2) Experiment operation: MDR1-MDCK cells that permanently express human P-glycoprotein were inoculated on a 96-well Insert cell plate, and cultured for 4-7 days to form confluent monolayer cells. […] In addition, the cells were lysed with the cold acetonitrile solution containing the internal standard to measure the accumulation amount of intracellular compounds. The LC/MS/MS method was used to analyze the concentrations of the compounds to be tested in all samples (including an initial dosing solution, supernatant of the donor wells, receiver solution, and cell lysate). The concentrations of the test compounds were expressed by the ratio of the peak area thereof to the peak area of the internal standard to detect the permeability of the compounds from directions of A→B and B→A.

For another data set, the system named is P-glycoprotein (MDR1). The data set can be described thus: Two-way permeability evaluation in MDR1-MDCK cells. The class given is in vitro ADME. Conditions: dog, MDCK-MDR1, pH 7.4, MDR1-MDCK.
From the text: as §1, §2

The conditions of data set [3]: reported data; cited from earlier work. The source holds these as a separate data set.
A short description of data set [4]: Two-way permeability evaluation in Caco-2 cells. Conditions: human; for recovery at 2.5 h, 2 μM: Caco-2, pH 7.4, Caco-2. The class given is in vitro ADME. How it is done: Experiment purpose: To determine the permeability of the test compounds in Caco-2 cells
Experiment operation: Human colon cancer Caco-2 cells were inoculated on a 96-well Insert cell plate at a density of 1×10^5 cells/cm^2, and cultured for 4-5 days to form confluent monolayer cells. The test compounds was diluted with an HBSS buffer (pH 7.4) to a concentration of 2 μM, added to the top or basolateral side of the cells, and incubated at 37° C., 5% CO2 and saturated humidity for 2.5 hours, and then the sample solutions in the donor wells and receiver wells were taken and immediately mixed with a cold acetonitrile solution containing an internal standard. In addition, the cells were lysed with the cold acetonitrile solution containing the internal standard to measure the accumulation amount of intracellular compounds. The LC/MS/MS method was used to analyze the concentrations of the compounds to be tested in all samples (including an initial dosing solution, supernatant of the donor wells, receiver solution, and cell lysate). The concentrations of the test compounds were expressed by the ratio of the peak area thereof to the peak area of the internal standard to detect the permeability of the compounds from directions of A→B and B→A.

Data set [5] can be described thus: Pharmacokinetic study in mice, tail vein injection and oral cassette dosing. Type of data set: in vivo. Conditions: mouse, plasma, female Balb/c mice. How it is done:
The purposes of the present disclosure are to study the pharmacokinetic behaviors of the compounds of the present disclosure in mice and to evaluate the pharmacokinetic characteristics thereof.
Healthy juvenile female Balb/c mice by weight of 20-30 g, 6 in total.
There were 6 female Balb/c mice, with after fasting overnight 3 mice administered a dose of 0.5 mg/kg via tail vein injection; the other 3 mice administered orally a dose of 2 mg/kg.
Blood was collected before administration and 0.08, 0.25, 0.5, 1, 2, 4, 8, and 24 hours after administration, placed in a heparinized anticoagulation tube, and centrifuged at 7000 rpm (5204 g) at 4° C., and the plasma was separated and stored at −80° C. 4 hours after administration, the mice were fed.
The LC/MS/MS method was used to determine the content of the compounds to be tested in mouse plasma after iv and oral administration. Plasma samples were analyzed after pretreatment of protein precipitation.

The mark [6] stands for this setting: read-out: Average recovery rate A→B.
The mark [7] stands for this setting: read-out: Average recovery rate B→A.
[8] abbreviates: Caco-2, 2 μM, pH 7.4, 2.5 hours.

Read-outs that look alike come from different tables or passages of the source.

For `COc1ncc(-c2nc3c(n2C(C)C)[C@H](c2ccc(Cl)cc2)N(c2cc(Cl)cn(C)c2=O)C3=O)c(OC)n1` [NVP-HDM201], the drug plasma exposure result in data set [1] is “low”. Besides, the half-life in mice result in data set [1] is “short”. Besides, in the data set on MV4-11 tumor cells, the “RTV (21 days)” value worked out at 4.68 ± 0.69. This molecule returned a T/C in the data set on MV4-11 tumor cells (21 days) of 73.58%. Also, the TGI with MV4-11 tumor cells (21 days) is given as 36.91%. In the data set with MV4-11 tumor cells (Day 0, before administration), the “Tumor volume (Day 0)” value stood at 153 ± 20 mm^3. Also, the “Tumor volume (Day 21)” value in the data set with MV4-11 tumor cells (Day 21) is recorded as 695 ± 115 mm^3. Further, the efflux ratio at 2.5 h, 2 μM is 20.3 in data set [2] (pH 7.4) and 198 in data set [4] (Caco-2, pH 7.4). For the same molecule, the Papp A→B at 2.5 h, 2 μM in data set [2] (2 μM, pH 7.4, 2.5 hours) stood at 0.91 ×10⁻⁶ cm/s; in data set [4] (setting [8]) it was 0.17 ×10⁻⁶ cm/s. Besides, the Papp B→A at 2.5 h, 2 μM in data set [2] (2 μM, pH 7.4, 2.5 hours) came out at 18.4 ×10⁻⁶ cm/s; in data set [4] (setting [8]), 34.3 ×10⁻⁶ cm/s. Moreover, the recovery at 2.5 h, 2 μM with P-glycoprotein (MDR1) (setting [6]) came to 38%; in the data set on P-glycoprotein (MDR1) (setting [7]), 50%; in data set [4] (setting [6]), 94.3%; in data set [4] (setting [7]), 88.3%. Also, the “stability in mouse liver microsomes” value in data set [3] is given as “poor”. Besides, the half-life in data set [5] (0.5 mg/kg, intravenous injection 0.5 mpk, read-out: Half-life T1/2 (converted)) was 42.6 min. In addition, the bioavailability in data set [5] (2 mg/kg, iv 0.5 mpk, oral 2 mpk, read-out: Oral bioavailability F) worked out at 39.6%. The AUC(0-t) in data set [5] (2 mg/kg, oral administration 2 mpk, read-out: Oral exposure AUC0-t) was 1.32 µM·h.

As a reminder, the T/C is the result in the treated group divided by that in the control group, in per cent. As usually defined, the TGI is the reduction of tumour growth relative to the control group. A high value points to a stronger effect on the tumour. By efflux ratio is commonly meant the permeability from basolateral to apical divided by that in the opposite direction, in the common usage. What is called Papp A→B is the apparent permeability from the apical to the basolateral side of a cell layer. What is called Papp B→A is the apparent permeability from the basolateral to the apical side of a cell layer. In general, bioavailability refers to the share of a dose that reaches the circulation, judged against a reference dose that is usually intravenous.
